Data taken from patent US11173124B2, “Oral delivery of GLP-1 peptide analogs” (MEDIMMUNE LIMITED, priority 2017, dated 2021).

Tests used:
[1] = Second rat intraduodenal study, permeation enhancers from Caco-2 (Example 5); assay type: in vivo; conditions: for AUC / Cmax / Tmax / half-life: in vivo, pH 8, rat
Method: (§1) Solution formulations comprising GLP-1 peptide analogs were injected into rats in the duodenum segment of the small intestine. The first ID study involved the use of sodium caprate as the permeation enhancer and the SEQ ID NO:3 GLP-1 peptide analog. Absolute bioavailability (% F) is a percentage-expressed measure of systemic drug exposure after oral, or in the current example intraduodenal, administration to the systemic exposure generated with intravenous (IV) administration of drug solution. Absolute bioavailability, (% F), is calculated as a percentage of systemic, or blood, drug concentration area under curve (AUC) of the AUC of IV administration adjusted to the amounts of drug given via these routes of administration.
Following the initial rat ID study, a second rat ID administration study was performed to evaluate the influence of permeation enhancers identified from the Caco-2 model study. That is, tetradecyl maltoside, sodium chenodeoxycholate, and combination of sodium chenodeoxycholate and propyl gallate were tested for their effect on oral bioavailability of the SEQ ID NO:3 peptide (Table 6).

[2] = First rat intraduodenal study, sodium caprate as permeation enhancer (Example 4); assay type: in vivo; conditions: for AUC / Cmax / Tmax / half-life: in vivo; for bioavailability: plasma
Method: as §1

[3] = ID, 1 mg/kg peptide + 25 mg/kg Na CDC + 12.5 mg/kg PG, PBS pH 8.0
[4] = ID, 1 mg/kg peptide + 25 mg/kg Na CDC, PBS pH 8.0
[5] = ID, 1 mg/kg peptide + 25 mg/kg Tetradecylmaltoside, PBS pH 8.0
[6] = ID, 1 mg/kg peptide + 50 mg/kg Na CDC, PBS pH 8.0
[7] = ID, 1 mg/kg peptide + 50 mg/kg Tetradecylmaltoside, PBS pH 8.0
[8] = ID, 10 mg/kg peptide + 50 mg/kg Na CDC + 25 mg/kg PG, PBS pH 8.0
[9] = ID, 10 mg/kg peptide + 50 mg/kg Na CDC, PBS pH 8.0
[10] = ID, 10 mg/kg peptide + 50 mg/kg Tetradecylmaltoside, PBS pH 8.0
[11] = Intravenous, 0.01 mg/kg peptide in PBS pH 8.0
[12] = 1 mg/kg, ID, 1 mg/kg peptide, no permeation enhancer, PBS pH 8.0
[13] = iv, 0.01 mg/kg, 0.01 mg/kg peptide in PBS pH 8.0
[14] = ID, 1 mg/kg peptide + 50 mg/kg Na CDC + 25 mg/kg PG, PBS pH 8.0
[15] = Intraduodenal, 1 mg/kg peptide, 0 mg/kg sodium caprate, 0.5 mg/mL in PBS pH 8.0
[16] = 50 mg/kg, pH 8.5, rat, Intraduodenal, 50 mg/kg peptide + 50 mg/kg sodium caprate, PBS pH 8.5
[17] = iv, 0.01 mg/kg, pH 8, rat, 0.01 mg/kg peptide in PBS pH 8.0
[18] = pH 8, rat, Intraduodenal, 1 mg/kg peptide, 0 mg/kg sodium caprate, 0.5 mg/mL in PBS pH 8.0
[19] = pH 8.5, rat, Intraduodenal, 1 mg/kg peptide + 50 mg/kg sodium caprate, PBS pH 8.5
[20] = pH 8.5, rat, Intraduodenal, 10 mg/kg peptide + 50 mg/kg sodium caprate, PBS pH 8.5
[21] = sc, 0.118 mg/kg, Subcutaneous, 0.118 mg/kg peptide in 0.1% BSA-PBS

Compound: CC[C@H](C)[C@H](NC(=O)C(C)(Cc1ccccc1)NC(=O)[C@H](CCC(=O)O)NC(=O)[C@H](CCCCNC(=O)COCCOCCNC(=O)COCCOCCNC(=O)CC[C@H](NC(=O)CCCCCCCCCCCCCCCCC(=O)O)C(=O)O)NC(=O)[C@H](C)NC(=O)[C@H](C)NC(=O)[C@H](CCC(=O)O)NC(=O)CNC(=O)[C@H](CCC(=O)O)NC(=O)[C@H](CC(C)C)NC(=O)C(C)(Cc1ccccc1)NC(=O)[C@H](CO)NC(=O)C(C)(CO)NC(=O)[C@@H](NC(=O)[C@H](CC(=O)O)NC(=O)[C@H](CO)NC(=O)[C@@H](NC(=O)C(C)(Cc1ccccc1)NC(=O)[C@H](CO)NC(=O)CNC(=O)[C@H](CCC(=O)O)NC(=O)C(C)(C)NC(=O)[C@@H](N)Cc1c[nH]cn1)[C@@H](C)O)C(C)C)C(=O)N[C@@H](C)C(=O)NC(C)(Cc1ccccc1)C(=O)N[C@H](C(=O)N[C@H](C(=O)NC(C)(CCCCN)C(=O)NCC(=O)NCC(N)=O)C(C)C)C(C)C (stereo partly drawn) [SEQ ID NO: 3, Free-H-[AIB]-EGS-[αMePhe]-TSDV-[αMeSer]-S-[αMePhe]-LEGEAAK[(PEG2)2-γE-Stearate]-E-[αMePhe]-IA-[αMePhe]-VV-[αMeLys]-GG-amide]
- F [1, 3]: 0.28%
- F [1, 4]: 0.12%
- F [1, 5]: 0.08%
- F [1, 6]: 0.21%
- F [1, 7]: 0.06%
- increase of oral bioavailability ([1]; ID, 1 mg/kg peptide, 50 mg/kg sodium chenodeoxycholate and 25 mg/kg propyl gallate (to 0.39%)): ~20 fold
- F [1, 8]: 0.42%
- F [1, 9]: 0.28%
- F [1, 10]: 0.07%
- F [1, 11]: 100%
- AUC [1, 12]: 19.4 ng·h/mL
- Cmax [1, 12]: 3.16 ng/mL
- Tmax [1, 12]: 8 h
- AUC [1, 13]: 1030 ng·h/mL
- Cmax [1, 13]: 96.2 ng/mL
- half-life ([1]; iv, 0.01 mg/kg, Intravenous, 0.01 mg/kg peptide in PBS pH 8.0, read-out: T ½ (converted)): 2.9 h
- AUC [1, 3]: 293 ng·h/mL
- Cmax [1, 3]: 39 ng/mL
- Tmax [1, 3]: 0.3 h
- half-life ([1]; ID, 1 mg/kg peptide + 25 mg/kg Na CDC + 12.5 mg/kg PG, PBS pH 8.0, read-out: T ½ (converted)): 9.1 h
- AUC [1, 4]: 121 ng·h/mL
- Cmax [1, 4]: 21.3 ng/mL
- Tmax [1, 4]: 0.3 h
- half-life ([1]; ID, 1 mg/kg peptide + 25 mg/kg Na CDC, PBS pH 8.0, read-out: T ½ (converted)): 7.16 h
- AUC [1, 5]: 87.3 ng·h/mL
- Cmax [1, 5]: 5.4 ng/mL
- Tmax [1, 5]: 1 h
- half-life ([1]; ID, 1 mg/kg peptide + 25 mg/kg Tetradecylmaltoside, PBS pH 8.0, read-out: T ½ (converted)): 17.4 h
- AUC [1, 14]: 402 ng·h/mL
- Cmax [1, 14]: 58.1 ng/mL
- Tmax [1, 14]: 0.5 h
- half-life ([1]; ID, 1 mg/kg peptide + 50 mg/kg Na CDC + 25 mg/kg PG, PBS pH 8.0, read-out: T ½ (converted)): 9.9 h
- AUC [1, 6]: 212 ng·h/mL
- Cmax [1, 6]: 30.9 ng/mL
- Tmax [1, 6]: 0.5 h
- half-life ([1]; ID, 1 mg/kg peptide + 50 mg/kg Na CDC, PBS pH 8.0, read-out: T ½ (converted)): 9.3 h
- AUC [1, 7]: 63.2 ng·h/mL
- Cmax [1, 7]: 5.8 ng/mL
- Tmax [1, 7]: 1 h
- half-life ([1]; ID, 1 mg/kg peptide + 50 mg/kg Tetradecylmaltoside, PBS pH 8.0, read-out: T ½ (converted)): 10.3 h
- AUC [1, 8]: 4330 ng·h/mL
- Cmax [1, 8]: 670 ng/mL
- Tmax [1, 8]: 0.5 h
- half-life ([1]; ID, 10 mg/kg peptide + 50 mg/kg Na CDC + 25 mg/kg PG, PBS pH 8.0, read-out: T ½ (converted)): 11 h
- AUC [1, 9]: 2920 ng·h/mL
- Cmax [1, 9]: 380 ng/mL
- Tmax [1, 9]: 0.5 h
- half-life ([1]; ID, 10 mg/kg peptide + 50 mg/kg Na CDC, PBS pH 8.0, read-out: T ½ (converted)): 9.4 h
- AUC [1, 10]: 705 ng·h/mL
- Cmax [1, 10]: 51.5 ng/mL
- Tmax [1, 10]: 0.5 h
- half-life ([1]; ID, 10 mg/kg peptide + 50 mg/kg Tetradecylmaltoside, PBS pH 8.0, read-out: T ½ (converted)): 8.19 h
- improvement in permeation ([2]; ID, 1 mg/kg peptide, 50 mg/kg sodium caprate (to 0.15%)): ~5 fold
- F ([2]; Intraduodenal, 1 mg/kg peptide + 50 mg/kg sodium caprate, PBS pH 8.5): 0.15%
- F [2, 15]: 0.035%
- F ([2]; Intraduodenal, 10 mg/kg peptide + 50 mg/kg sodium caprate, PBS pH 8.5): 0.29%
- F ([2]; Intraduodenal, 50 mg/kg peptide + 50 mg/kg sodium caprate, PBS pH 8.5): 0.71%
- F [2, 11]: 100%
- AUC [2, 16]: 46000 ng·h/mL
- Cmax [2, 16]: 6300 ng/mL
- Tmax [2, 16]: 0.44 h
- half-life ([2]; 50 mg/kg, pH 8.5, rat, Intraduodenal, 50 mg/kg peptide + 50 mg/kg sodium caprate, PBS pH 8.5, read-out: T ½ (converted)): 8.3 h
- AUC [2, 17]: 1300 ng·h/mL
- Cmax [2, 17]: 210 ng/mL
- Tmax [2, 17]: 0.12 h
- half-life ([2]; iv, 0.01 mg/kg, pH 8, rat, Intravenous, 0.01 mg/kg peptide in PBS pH 8.0, read-out: T ½ (converted)): 10 h
- AUC [2, 18]: 45 ng·h/mL
- Cmax [2, 18]: 5.1 ng/mL
- Tmax [2, 18]: 2.3 h
- half-life ([2]; pH 8, rat, Intraduodenal, 1 mg/kg peptide, 0 mg/kg sodium caprate, 0.5 mg/mL in PBS pH 8.0, read-out: T ½ (converted)): 8.8 h
- AUC [2, 19]: 200 ng·h/mL
- Cmax [2, 19]: 34 ng/mL
- Tmax [2, 19]: 0.38 h
- half-life ([2]; pH 8.5, rat, Intraduodenal, 1 mg/kg peptide + 50 mg/kg sodium caprate, PBS pH 8.5, read-out: T ½ (converted)): 9.3 h
- AUC [2, 20]: 3800 ng·h/mL
- Cmax [2, 20]: 470 ng/mL
- Tmax [2, 20]: 0.44 h
- half-life ([2]; pH 8.5, rat, Intraduodenal, 10 mg/kg peptide + 50 mg/kg sodium caprate, PBS pH 8.5, read-out: T ½ (converted)): 10 h
- AUC [2, 21]: 11000 ng·h/mL
- Cmax [2, 21]: 460 ng/mL
- Tmax [2, 21]: 9 h
- half-life ([2]; sc, 0.118 mg/kg, Subcutaneous, 0.118 mg/kg peptide in 0.1% BSA-PBS, read-out: T ½ (converted)): 11 h
- increase of bioavailability ([2]; intraduodenal, 0.71% with 50 mg/kg sodium caprate vs 0.035% without formulation intervention): ~20 fold
- bioavailability [2, 15]: 0.035%
- bioavailability ([2]; sc, Subcutaneous, 0.118 mg/kg peptide in 0.1% BSA-PBS): 71%
